Consider 26 compounds from PMC8286840, “Identifying SARS-CoV-2 antiviral compounds by screening for small molecule inhibitors of Nsp3 papain-like protease” (Biochemical Journal, 2021).

The target of experiment [1] is T1, SARS-CoV-2 PLpro (nsp3 1564–1878) (Severe acute respiratory syndrome coronavirus 2, UniProt P0DTD1). Nature of the experiment: biochemical. More on the design: FRET-quenched peptide (Pro3) cleavage by PLpro, 10 min pre-incubation, slope over 20 min, normalised to no-compound control. The conditions noted are these: high concentration screen, read-out: % of control remaining.

The target in experiment [2] is T1, SARS-CoV-2 PLpro (nsp3 1564–1878). Nature of the experiment: biochemical. More on the design: FRET-quenched peptide (Pro3) cleavage by PLpro, 10 min pre-incubation, slope over 20 min, normalised to no-compound control. The conditions noted are these: low concentration screen, read-out: % of control remaining.

Molecules are shown by their SMILES. Where a name gives a salt, the structure may show the parent alone. Read-outs that look alike come from different tables or passages of the source.

Turning to `CCCCC[C@H](O)/C=C/[C@H]1[C@H](O)CC(=O)[C@@H]1CCCCCCC(=O)O` [Prostaglandin E1], the remaining activity at 3.75 µM was determined as 91.2% in experiment [1] (Well no.=2192); 97% in experiment [1] (Well no.=3090); 101% in experiment [1] (Well no.=4473); 94.7% in experiment [1] (Well no.=4475); 95% in experiment [1] (Well no.=8109). Further, the remaining activity at 1.25 µM amounted to 92.3% in experiment [2] (Well no.=2192); 95.3% in experiment [2] (Well no.=3090); 103% in experiment [2] (Well no.=4473); 93.1% in experiment [2] (Well no.=4475); 91.2% in experiment [2] (Well no.=8109).

In the case of `CCCCC[C@H](O)/C=C/[C@H]1[C@H](O)CC(=O)[C@@H]1C/C=C\CCCC(=O)O` [Prostaglandin E2], the remaining activity at 3.75 µM in experiment [1] (Well no.=1625) stood at 103%; in experiment [1] (Well no.=3092) it was 101%; in experiment [1] (Well no.=6151), 110%; in experiment [1] (Well no.=8105) it was 95.4%. For the same compound, the remaining activity at 1.25 µM came to 100% in experiment [2] (Well no.=1625); 98.6% in experiment [2] (Well no.=3092); 99.7% in experiment [2] (Well no.=4477); 106% in experiment [2] (Well no.=6151); 94.3% in experiment [2] (Well no.=8105).

As for `CCCCC[C@H](O)/C=C/[C@@H]1[C@H]2C/C(=C/CCCC(=O)O)O[C@H]2C[C@H]1O` [Prostaglandin I2 Na], the remaining activity at 3.75 µM in experiment [1] (Well no.=4483) turned out to be 102%. For the same compound, in experiment [2] (Well no.=4483), the remaining activity at 1.25 µM was found to be 99%.

Turning to `CCCc1cc(C(N)=S)ccn1` [Prothionamide], in experiment [1] (Well no.=2147), the remaining activity at 3.75 µM was determined as 99.4%. Moreover, the remaining activity at 1.25 µM in experiment [2] (Well no.=2147) stood at 97%.

Take `O=C(O)c1ccc(O)c(O)c1` [Protocatechuic acid]: in experiment [1] (Well no.=4047), the remaining activity at 3.75 µM came to 101%. Further, the remaining activity at 1.25 µM in experiment [2] (Well no.=4047) is 99.6%.

For `CN1CCc2cc3c(cc2C(=O)Cc2cc4c(cc2C1)OCO4)OCO3` [Protopine], in experiment [1] (Well no.=3195), the remaining activity at 3.75 µM stood at 104%. Further, in experiment [2] (Well no.=3195), the remaining activity at 1.25 µM was found to be 105%.

`C=CC1=C(C)c2cc3[nH]c(cc4nc(cc5[nH]c(cc1n2)c(C)c5CCC(=O)O)C(CCC(=O)O)=C4C)c(C)c3C=C` [Protoporphyrin IX disodium]: in experiment [1] (Well no.=1207), the remaining activity at 3.75 µM came to 102%. The remaining activity at 1.25 µM in experiment [2] (Well no.=1207) came out at 104%.

Regarding `CNCCCC1c2ccccc2C=Cc2ccccc21` [Protriptyline hydrochloride], the remaining activity at 3.75 µM in experiment [1] (Well no.=1209) was 104%. In addition, in experiment [2] (Well no.=1209), the remaining activity at 1.25 µM worked out at 108%.

As to `CC(O)Cn1cnc2c1c(=O)n(C)c(=O)n2C` (stereo not drawn) [Proxyphylline], the remaining activity at 3.75 µM in experiment [1] (Well no.=6220) was determined as 94%; in experiment [1] (Well no.=8073), 108%. The remaining activity at 1.25 µM in experiment [2] (Well no.=6220) was 94.5%; in experiment [2] (Well no.=8073), 105%.

Consider `COCCCN1CCC(NC(=O)c2cc(Cl)c(N)c3c2OCC3)CC1` [Prucalopride (succinate)], for which the remaining activity at 3.75 µM in experiment [1] (Well no.=7675) was determined as 103%. Besides, the remaining activity at 1.25 µM in experiment [2] (Well no.=7675) amounted to 100%.

Turning to `COCCCN1CCC(NC(=O)c2cc(Cl)c(N)c3c2OCC3)CC1` [Prucalopride], the remaining activity at 3.75 µM came out at 98.1% in experiment [1] (Well no.=4835) and 101% in experiment [1] (Well no.=8143). Also, the remaining activity at 1.25 µM in experiment [2] (Well no.=4835) amounted to 99.7%; in experiment [2] (Well no.=8143), 103%.

Consider `COc1ccc(C[C@H](N)C(=O)N[C@H]2[C@@H](O)[C@H](n3cnc4c(N(C)C)ncnc43)O[C@@H]2CO)cc1` [Puromycin], for which the remaining activity at 3.75 µM in experiment [1] (Well no.=1674) turned out to be 97.6%; in experiment [1] (Well no.=3350), 90.4%. In addition, the figures for the remaining activity at 1.25 µM in experiment [2] (Well no.=1674) and in experiment [2] (Well no.=3350) were 98.5% and 93.8%, respectively.

As to `CC(C)[C@H](CO)Nc1nc(Nc2cccc(Cl)c2)c2ncn(C(C)C)c2n1` [Purvalanol A - (2R)-2-[[6-[(3-Chlorophenyl)amino]-9-(1-methylethyl)-9H-purin-2-yl]amino]-3-methyl-1-butanol], the remaining activity at 3.75 µM in experiment [1] (Well no.=2434) amounted to 105%. For the same compound, the remaining activity at 1.25 µM in experiment [2] (Well no.=2434) turned out to be 105%.

As for `CC(C)[C@H](CO)Nc1nc(Nc2cccc(Cl)c2)c2ncn(C(C)C)c2n1` [Purvalanol A], the results for the remaining activity at 3.75 µM in experiment [1] (Well no.=1050) and in experiment [1] (Well no.=2606) were 86.5% and 92%, respectively. In addition, the results for the remaining activity at 1.25 µM in experiment [2] (Well no.=1050) and in experiment [2] (Well no.=2606) were 86.7% and 91.1%, respectively.

As to `CC(C)[C@H](CO)Nc1nc(Nc2ccc(C(=O)O)c(Cl)c2)c2ncn(C(C)C)c2n1` [Purvalanol B - (2R)-2-[[6-[(3-Chloro-4-carboxyphenyl)amino]-9-(1-methylethyl)-9H-purin-2-yl]amino]-3-methyl-1-butanol], in experiment [1] (Well no.=2436), the remaining activity at 3.75 µM turned out to be 105%. Moreover, in experiment [2] (Well no.=2436), the remaining activity at 1.25 µM worked out at 103%.

On to `CC(C)[C@H](CO)Nc1nc(Nc2ccc(C(=O)O)c(Cl)c2)c2ncn(C(C)C)c2n1` [Purvalanol B], for which the remaining activity at 3.75 µM in experiment [1] (Well no.=2843) was found to be 94.9%. Also, in experiment [2] (Well no.=2843), the remaining activity at 1.25 µM was found to be 96.5%.

`NCCCCN` [Putrescine dihydrochloride]: the remaining activity at 3.75 µM in experiment [1] (Well no.=1205) was 102%. Moreover, the remaining activity at 1.25 µM in experiment [2] (Well no.=1205) turned out to be 103%.

Take `O=S(=O)(NCc1ccccn1)c1ccc(Br)c2ccccc12` [Pyrabactin]: in experiment [1] (Well no.=5918), the remaining activity at 3.75 µM amounted to 95.8%. The remaining activity at 1.25 µM in experiment [2] (Well no.=5918) is 96.4%.

In the case of `NC(=O)c1cnccn1` [Pyrazinecarboxamide], the remaining activity at 3.75 µM in experiment [1] (Well no.=1395) was 99.2%. In addition, the remaining activity at 1.25 µM in experiment [2] (Well no.=1395) is 101%.

Regarding `CN(C)C(=O)Oc1ccc[n+](C)c1` [Pyridostigmine bromide], the remaining activity at 3.75 µM in experiment [1] (Well no.=1499) was found to be 91.4%. Further, the remaining activity at 1.25 µM in experiment [2] (Well no.=1499) was found to be 89.1%.

On to `Cc1ncc(COP(=O)(O)O)c(C=O)c1O` [Pyridoxal phosphate], for which the remaining activity at 3.75 µM in experiment [1] (Well no.=6389) was 101%. Also, the remaining activity at 1.25 µM in experiment [2] (Well no.=6389) was 103%.

In the case of `Cc1ncc(CO)c(CO)c1O` [Pyridoxine HCl], in experiment [1] (Well no.=4935), the remaining activity at 3.75 µM is 96.8%. In experiment [2] (Well no.=4935), the remaining activity at 1.25 µM stood at 97.7%.

As for `COc1ccc(CN(CCN(C)C)c2ccccn2)cc1` [Pyrilamine maleate], the remaining activity at 3.75 µM in experiment [1] (Well no.=814) turned out to be 104%. Also, in experiment [2] (Well no.=814), the remaining activity at 1.25 µM amounted to 101%.

Turning to `CCc1nc(N)nc(N)c1-c1ccc(Cl)cc1` [Pyrimethamine], in experiment [1] (Well no.=4708), the remaining activity at 3.75 µM came to 97.2%. In experiment [2] (Well no.=4708), the remaining activity at 1.25 µM amounted to 102%.

`Oc1ccccc1O` [Pyrocatechol]: the remaining activity at 3.75 µM in experiment [1] (Well no.=190) is 98%. For the same compound, the remaining activity at 1.25 µM in experiment [2] (Well no.=190) amounted to 101%.

With `Oc1cccc(O)c1O` [Pyrogallol], in experiment [1] (Well no.=6975), the remaining activity at 3.75 µM was found to be 105%. The remaining activity at 1.25 µM in experiment [2] (Well no.=6975) came to 104%.
